According to US7820400B2, “Tumor-associated marker” (The Trustees of Columbia University in the City of New York, priority 2000, dated 2010):

Tested on: SK-BR-3 cells
Experiment: Release of TIP-2 antigen into culture media of Taxol-treated cells (Western blot)
Format: cell-based, human
Details: SK-BR-3 cells treated with increasing amounts of Taxol (5.5-88 uM)
Procedure: The release of TIP-2 antigen into cell culture media of SK-BR-3 cells treated with different concentration of Taxol. The lines are as follows (from left to right): 1) SK-BR-3 cell lysate prepared form approximately 70,000 cells; 2) empty lane; 3) Taxol, 88 uM added to 35 mm tissue plate containing approximately 250,000 cells; 4) same with Taxol, 44 uM; 5) same with Taxol, 22 uM; 7) same with Taxol, 11 uM; 8) same with Taxol, 5.5 uM; 9) cell lysate prepared from cells which were not treated with Taxol; 10) lysate prepared from the residual dead cells' remnants after treatment with Taxol, 88 uM.
Using a specific fusion partner cell line MFP-2 were developed two fully human antibodies to breast and prostate cancer-associated antigens. Both antigens were reactive with a 42 kDa-protein target, which was identified through SEREX technology as Ga-interacting protein, C terminus or Tax interacting protein, clone 2. This protein is specifically overexpressed in three human breast cancer cell lines, SK-BR-3, MCF-7 and ZR-1-75, has very low if any expression level in human prostate cancer lines, PC-3, LNCaP and DU-145 and no expression in two human fibroblast cell lines. […] Normal breast epithelia were negative for staining with anti-TIP-2 antibodies as was benign prostate hyperplasia (BPH) tissue. […]

In the case of CC(=O)O[C@H]1C(=O)[C@@]2(C)[C@H]([C@H](OC(=O)c3ccccc3)[C@]3(O)C[C@H](OC(=O)[C@H](O)[C@@H](NC(=O)c4ccccc4)c4ccccc4)C(C)=C1C3(C)C)[C@]1(OC(C)=O)CO[C@@H]1C[C@@H]2O [Taxol], the “release of TIP-2 antigen into the media” value is reported as “TIP-2 antigen released into the media in a dose dependent manner”.
